≈ marks a conversion by molar mass, not a printed value.

This assay has as its system rhinovirus, HRV-14. Description: Anti-picornaviral plaque reduction assay. It counts as cell-based. The settings on record: Rhinovirus B, HRV14, Table 1, 50% inhibition of plaque formation, BSC-1 or Hela cells, 120 hours at 32° C., trans isomer. On the technique in general: In a plaque reduction assay, fewer plaques than in the control indicate reduced infectivity or spread.
For the compound `CC(C)S(=O)(=O)n1c(N)nc2ccc(/C(=C/[S+](C)[O-])c3cccc(F)c3F)cc21` (centres unmarked) [Example 10], it took 0.394 µg/mL (≈ 0.896 µM) to reach half-maximal inhibition (IC50). Under `CC(=O)/C=C(\c1ccc(F)cc1)c1ccc2nc(N)n(S(=O)(=O)C(C)C)c2c1` [Example 14, 1-Isopropylsulfonyl-2-Amino-6-(1-[4-Fluorophenyl]-2-(1-Oxoeth-1-yl)ethen-1-yl)benzimidazole] stands 0.21 µg/mL (≈ 0.523 µM). For `CC(C)S(=O)(=O)n1c(N)nc2ccc(/C(=N/O)c3cccc(F)c3F)cc21` [Example 13, Trans 1-Isopropylsulfonyl-2-Amino-6-(1-[2,3-Difluorophenyl]oximyl)benzimidazole] the value was 0.051 µg/mL (≈ 0.129 µM); for `CC(C)S(=O)(=O)n1c(N)nc2ccc(/C(=C/[S+](C)[O-])c3ccccc3)cc21` (centres unmarked) [10 (parent), reference compound], 3.52 µg/mL (≈ 8.72 µM).

As for `COC(=O)/C=C(\c1ccccc1)c1ccc2nc(N)n(S(=O)(=O)C(C)C)c2c1` [12 (parent), reference compound], it took 0.05 µg/mL (≈ 0.125 µM) to reach half-maximal inhibition (IC50).

Regarding `CC(C)S(=O)(=O)n1c(N)nc2ccc(/C(=N/O)c3ccccc3)cc21` [13 (parent), reference compound], the concentration for half-maximal inhibition (IC50) (as a rule, the concentration needed to halve the response being measured) was found to be 0.05 µg/mL (≈ 0.139 µM). Under `CS/C=C(\c1ccccc1)c1ccc2nc(N)n(S(=O)(=O)C(C)C)c2c1` [9 (parent), reference compound] stands 2.58 µg/mL (≈ 6.66 µM). Under `CS/C=C(/c1ccc2nc(N)n(S(=O)(=O)C(C)C)c2c1)c1cccc(F)c1F` [Example 9, 1-Isopropylsulfonyl-2-Amino-6-(1-[2,3-Difluorophenyl]-2-Methylsulfidoethen-1-yl)benzimidazole] stands 0.072 µg/mL (≈ 0.17 µM); under `CC(=O)/C=C(/c1ccc2nc(N)n(S(=O)(=O)C(C)C)c2c1)c1cccc(F)c1F` [Example 11, Trans 1-Isopropylsulfonyl-2-Amino-6-(1-[2,3-Difluorophenyl]-2-(1-Oxoeth-1-yl)ethen-1-yl)benzimidazole], 0.048 µg/mL (≈ 0.114 µM); under `CC(C)S(=O)(=O)n1c(N)nc2ccc(/C(=C/S(C)(=O)=O)c3cccc(F)c3F)cc21` [Example 8, Trans 1-Isopropylsulfonyl-2-Amino-6-(1-[2,3-Difluorophenyl]-2-Methylsulfonylethen-1-yl)benzimidazole], 0.05 µg/mL (≈ 0.11 µM). Under `COC(=O)/C=C(/c1ccc2nc(N)n(S(=O)(=O)C(C)C)c2c1)c1cccc(F)c1F` [Example 12] stands 0.052 µg/mL (≈ 0.119 µM).
